Data on 14 compounds can be found in US9676760B2, “Fused heterocyclic compounds as ion channel modulators” (Gilead Sciences, Inc., priority 2011, dated 2017).

The structures appear in SMILES notation.

For this experiment, the target named is wild-type human cardiac sodium channel, hNav1.5 (Homo sapiens, UniProt Q14524). Nature of the experiment: Late INa screening assay (QPatch whole cell patch clamp, HEK293). Conditions: for inhibition at 1 µM: HEK293, percent block of late INa, compound at 1 μM, 10 μM Tefluthrin, read-out: Late INa 1 μM. The experiment is classed as cell-based. The method, then: The late sodium current (Late INa) and peak sodium current (Peak INa) assays are performed on an automated electrophysiology platform, QPatch 16× (Sophion Bioscience, Copenhagen, Denmark), which uses the whole cell patch clamp technique to measure currents through the cell membrane of up to 16 cells at a time. The assay uses an HEK293 (human embryonic kidney) cell line heterologously expressing the wild-type human cardiac sodium channel, hNav1.5, purchased from Millipore (Billerica, Mass.). No beta subunits were coexpressed with the Na channel alpha subunit. Cells are maintained with standard tissue culture procedures and stable channel expression is maintained with 400 μg/mL Geneticin in the culture medium. Cells isolated for use on QPatch are incubated for 5 minutes in Detachin 1×(Genlantis, San Diego, USA) at 37° C. to ensure that 80-90% of the cells are single and not part of a cell cluster. Experiments are carried out at 23-25° C.
For both the Late INa and Peak INa assays, series resistance compensation is set to 100% and series resistance and whole-cell compensation are performed automatically. Currents are digitized at 25 kHz and low-pass filtered at 12 kHz and 10 kHz for the late and peak INa assays, respectively. Currents through open sodium channels are automatically recorded and stored in the Sophion Bioscience Oracle database (Sophion Bioscience, Copenhagen, Denmark). Analysis is performed using QPatch Assay and database software and data are compiled in Excel.
Compound stocks are routinely made by the Gilead Sample Bank in plastic vials to 10 mM in dimethyl sulfoxide (DMSO). In some cases, when compounds are not soluble in DMSO, they are made in 100% ethanol. Stocks are sonicated as necessary. The extracellular solution for screening Late INa is composed of: 140 mM NaCl, 4 mM KCl, 1.8 mM CaCl2, 0.75 mM MgCl2 and 5 mM HEPES with pH adjusted to 7.4 using NaOH. The intracellular solution used to perfuse the inside of the cells for both the Late INa and Peak INa assays contains: 120 mM CsF, 20 mM CsCl, 5 mM EGTA, 5 mM HEPES and pH adjusted to 7.4 with CsOH. Compounds are diluted in extracellular solution to 1 μM in glass vials and then transferred to glass well plates before robotic addition to the cells. The 0 mM Na extracellular solution (0Na-ECF) used at the end of each experiment for the Late INa and Peak INa assays to measure baseline current contains: 140 mM N-methyl-D-glucamine; 4 mM KCl; 1.8 mM CaCl2; 0.75 mM MgCl2; 5 mM HEPES and pH was adjusted to 7.4 with HCl.
For the Late INa assay, sodium channels are activated every 10 seconds (0.1 Hz) by depolarizing the cell membrane to −20 mV for 250 milliseconds (ms) from a holding potential of −120 mV. In response to a −20 mV voltage step, typical hNav1.5 sodium currents activate rapidly to a peak negative current and then inactivate nearly completely within 3-4 ms.
Compounds were tested to determine their activity in blocking the late sodium current. Late INa was generated by adding 10 μM Tefluthrin (pyrethroid) to the extracellular solution while recording Na currents. […] ATX-II and tefluthrin occupy distinct, non-overlapping binding sites and modify Na^+ channel function differently to increase late INa. […] After establishing the whole cell recording configuration, late INa activator is added to each well 4 times over a 16-17 minute period so that the late component of the Na current reaches a stable value.
Results are reported as percent block of late INa.

Sequence of wild-type human cardiac sodium channel, hNav1.5 (Q14524 whole entry): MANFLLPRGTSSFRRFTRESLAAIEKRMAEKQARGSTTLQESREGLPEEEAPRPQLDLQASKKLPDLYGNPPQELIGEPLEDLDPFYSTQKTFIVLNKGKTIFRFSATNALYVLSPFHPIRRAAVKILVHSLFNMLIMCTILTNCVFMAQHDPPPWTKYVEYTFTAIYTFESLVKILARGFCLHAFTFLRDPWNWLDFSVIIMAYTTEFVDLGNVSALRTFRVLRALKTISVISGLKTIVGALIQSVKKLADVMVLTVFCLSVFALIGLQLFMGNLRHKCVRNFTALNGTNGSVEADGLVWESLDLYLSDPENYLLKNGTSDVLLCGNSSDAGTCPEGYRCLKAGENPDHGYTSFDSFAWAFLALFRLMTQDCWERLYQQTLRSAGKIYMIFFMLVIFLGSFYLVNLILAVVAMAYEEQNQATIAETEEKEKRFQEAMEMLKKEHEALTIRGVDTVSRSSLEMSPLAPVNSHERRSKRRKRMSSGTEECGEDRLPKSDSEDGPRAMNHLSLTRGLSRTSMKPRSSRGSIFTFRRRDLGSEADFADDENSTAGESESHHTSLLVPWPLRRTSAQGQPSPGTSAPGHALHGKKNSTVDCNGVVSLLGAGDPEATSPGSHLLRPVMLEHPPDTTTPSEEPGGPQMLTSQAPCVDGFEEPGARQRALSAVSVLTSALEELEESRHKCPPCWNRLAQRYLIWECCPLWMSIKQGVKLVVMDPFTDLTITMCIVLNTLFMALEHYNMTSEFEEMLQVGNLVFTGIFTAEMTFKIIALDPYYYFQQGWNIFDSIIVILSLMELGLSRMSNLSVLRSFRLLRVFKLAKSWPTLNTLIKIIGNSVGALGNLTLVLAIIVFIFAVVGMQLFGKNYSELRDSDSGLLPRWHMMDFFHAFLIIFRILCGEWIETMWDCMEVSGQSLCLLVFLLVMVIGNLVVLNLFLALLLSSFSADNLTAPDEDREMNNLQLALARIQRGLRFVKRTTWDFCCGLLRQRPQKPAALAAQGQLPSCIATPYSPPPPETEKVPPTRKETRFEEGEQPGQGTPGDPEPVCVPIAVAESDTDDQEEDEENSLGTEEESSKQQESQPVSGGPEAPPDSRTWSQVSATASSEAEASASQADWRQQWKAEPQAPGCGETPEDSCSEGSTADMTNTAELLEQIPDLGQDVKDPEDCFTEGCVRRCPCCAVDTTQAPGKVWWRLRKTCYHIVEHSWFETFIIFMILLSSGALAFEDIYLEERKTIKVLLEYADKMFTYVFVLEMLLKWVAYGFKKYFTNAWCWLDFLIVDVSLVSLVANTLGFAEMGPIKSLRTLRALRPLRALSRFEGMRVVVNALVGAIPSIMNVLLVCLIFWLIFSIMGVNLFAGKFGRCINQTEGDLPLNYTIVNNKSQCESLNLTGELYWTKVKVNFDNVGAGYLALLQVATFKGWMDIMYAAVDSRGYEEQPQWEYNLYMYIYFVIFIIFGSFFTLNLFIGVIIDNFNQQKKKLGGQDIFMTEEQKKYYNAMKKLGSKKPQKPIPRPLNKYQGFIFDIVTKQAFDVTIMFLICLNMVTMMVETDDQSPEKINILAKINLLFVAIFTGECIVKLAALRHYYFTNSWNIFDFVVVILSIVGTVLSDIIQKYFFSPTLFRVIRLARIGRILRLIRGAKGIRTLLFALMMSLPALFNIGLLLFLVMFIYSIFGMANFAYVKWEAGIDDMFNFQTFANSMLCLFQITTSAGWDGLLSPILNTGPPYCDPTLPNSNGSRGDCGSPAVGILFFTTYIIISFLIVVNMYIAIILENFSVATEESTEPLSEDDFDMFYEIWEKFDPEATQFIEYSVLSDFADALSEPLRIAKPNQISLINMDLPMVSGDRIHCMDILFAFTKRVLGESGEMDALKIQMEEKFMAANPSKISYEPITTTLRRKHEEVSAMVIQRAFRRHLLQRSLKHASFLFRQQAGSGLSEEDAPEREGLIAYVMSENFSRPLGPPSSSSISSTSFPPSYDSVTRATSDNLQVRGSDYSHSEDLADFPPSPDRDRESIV

In the case of `O=C1c2cc(-c3ccc(C(F)(F)F)cc3F)ccc2OCCN1Cc1ncccn1` [Compound 11-105], the “inhibited (or reduced) the late sodium current” value (10 μM Tefluthrin activating late INa) is listed as 45%. Consider `CC(C)(C)C1CC=C(c2ccc3c(c2)C(=O)N(Cc2ncccn2)CCO3)CC1` (centres unmarked) [Compound V-1, 7-(4-tert-butylcyclohex-1-enyl)-4-(pyrimidin-2-ylmethyl)-3,4-dihydrobenzo[f][1,4]oxazepin-5(2H)-one], for which the inhibition at 1 µM came out at 24%. Same read-out and setting: under `O=C1c2cc(C3=CCCCC3)ccc2OCCN1Cc1ncccn1` [Compound V-3, 7-cyclohexenyl-4-(pyrimidin-2-ylmethyl)-3,4-dihydrobenzo[f][1,4]oxazepin-5(2H)-one] stands 23%; under `O=C1c2cc(-c3ccc(C(F)(F)F)cc3)ccc2-n2ccnc2CN1Cc1ccccc1` [Compound X-12, 5-benzyl-8-(4-(trifluoromethyl)phenyl)-4H-benzo[f]imidazo[1,2-a][1,4]diazepin-6(5H)-one], 26%; under `CC1(CN2CCOc3ccc(-c4ccc(OC(F)(F)F)cc4)cc3C2=O)COC1` [II-1, 4-((3-methyloxetan-3-yl)methyl)-7-(4-(trifluoromethoxy)phenyl)-3,4-dihydrobenzo[f][1,4]oxazepin-5(2H)-one], 25%. As to `O=C1c2cc(-c3ccc(OC(F)(F)F)cc3)ccc2OCCN1CCN1CCCC1` [II-3, 4-(2-(pyrrolidin-1-yl)ethyl)-7-(4-(trifluoromethoxy)phenyl)-3,4-dihydrobenzo[f][1,4]oxazepin-5(2H)-one], the inhibition at 1 µM was found to be 15%.

For `O=C1c2cc(-c3ccc(OC(F)(F)F)cc3)ccc2OCCN1Cc1nnc(C2CCC2)o1` [II-4, 4-((5-cyclobutyl-1,3,4-oxadiazol-2-yl)methyl)-7-(4-(trifluoromethoxy)phenyl)-3,4-dihydrobenzo[f][1,4]oxazepin-5(2H)-one], the inhibition at 1 µM turned out to be 30%. Still for that read-out and setting: for `O=C1c2cc(-c3ccc(OC(F)(F)F)cc3)ccc2OCCN1Cc1ccc2c(c1)OCCO2` [II-5, 4-((2,3-dihydrobenzo[b][1,4]dioxin-6-yl)methyl)-7-(4-(trifluoromethoxy)phenyl)-3,4-dihydrobenzo[f][1,4]oxazepin-5(2H)-one] the value was 26%. With `O=C1c2cc(-c3ccc(OC(F)(F)F)cc3)ccc2OCCN1CC(F)F` [II-6, 4-(2,2-difluoroethyl)-7-(4-(trifluoromethoxy)phenyl)-3,4-dihydrobenzo[f][1,4]oxazepin-5(2H)-one], the inhibition at 1 µM came out at 16%.

Regarding `O=C1c2cc(-c3ccc(C(F)(F)F)cc3)ccc2OC[C@H]2CN(Cc3ncccn3)CCN12` [II-8, (R)-2-(pyrimidin-2-ylmethyl)-8-(4-(trifluoromethyl)phenyl)-3,4,12,12a-tetrahydro-1H-benzo[f]pyrazino[2,1-c][1,4]oxazepin-6(2H)-one], the inhibition at 1 µM stood at 21%. Consider `COCCN1CCOc2ccc(-c3ccc(OC(F)(F)F)cc3)cc2C1=O` [II-11, 4-(2-methoxyethyl)-7-(4-(trifluoromethoxy)phenyl)-3,4-dihydrobenzo[f][1,4]oxazepin-5(2H)-one], for which the inhibition at 1 µM is 23%. In the case of `C[C@H]1COc2ccc(-c3ccc(C(F)(F)F)cc3)cc2C(=O)N1Cc1ncccn1` [II-12, (S)-3-methyl-4-(pyrimidin-2-ylmethyl)-7-(4-(trifluoromethyl)phenyl)-3,4-dihydrobenzo[f][1,4]oxazepin-5(2H)-one], the inhibition at 1 µM came out at 21%. As to `C[C@@H]1COc2ccc(-c3ccc(C(F)(F)F)cc3)cc2C(=O)N1Cc1ncccn1` [II-13, (R)-3-methyl-4-(pyrimidin-2-ylmethyl)-7-(4-(trifluoromethyl)phenyl)-3,4-dihydrobenzo[f][1,4]oxazepin-5(2H)-one], the inhibition at 1 µM is 18%. For the compound `O=C1c2cc(-c3ccc(OC(F)(F)F)cc3)ccc2OCCN1Cc1ccc(C(F)(F)F)nc1` [II-16, 7-(4-(trifluoromethoxy)phenyl)-4-((6-(trifluoromethyl)pyridin-3-yl)methyl)-3,4-dihydrobenzo[f][1,4]oxazepin-5(2H)-one], the inhibition at 1 µM amounted to 19%.
